Read-outs that look alike come from different tables or passages of the source.
Tests used:
RenCa.2 tumor = test: Concurrent mIL-21 and sub-maximal sorafenib: RenCa.2 tumor growth in mice; type: in vivo, mouse
Protocol: Tumor volume was monitored 3×/week for 3 weeks.
Ten-week old female BALB/c mice (Charles River Laboratories) were injected s.c. on the right flank with 0.1×10^6 RenCa.2 cells on Day 0. […] Tumor growth was monitored 3×/week for 3 weeks using caliper measurements. Tumor volume is calculated using the formula ½*(B)2*L (mm3).

RenCa.2 tumors = test: Concurrent mIL-21 and high dose sorafenib: survival of mice bearing RenCa.2 tumors; type: in vivo, mouse; conditions: BALB/c mice, s.c. RenCa; from day 5: 50 μg mIL-21 i.p. 5/9/5 and/or 60 mg/kg sorafenib oral gavage 10 days; n=10/group
Protocol: Survival of mice receiving the treatments were monitored over 35 days.
Survival of mice were monitored over 35 days.
Ten-week old female BALB/c mice (Charles River Laboratories) were injected s.c. on the right flank with 0.1×10^6 RenCa cells on Day 0. […] Tumor growth was monitored 3×/week for 3 weeks using caliper measurements. Survival of mice were monitored over 35 days. Tumor bearing mice were terminated as per IACUC policies with regard to maximal tumor size (1200 mm^3) or weight loss of >=20% of initial body weight.

[1] = test system: murine model of renal adenocarcinoma (RenCa); conditions: cited from earlier work
[2] = test system: RenCa.2 mouse renal cell carcinoma model; conditions: RenCa.2 model

Row | Compound | inhibition of tumor growth (in words) (RenCa.2 tumor; 25 μg mIL-21 and/or 2 mg/kg sorafenib, RenCa.2 model) | Tumor volume mm3 + SD(Day21) (RenCa.2 tumor; BALB/c mice, s.c. RenCa.2, from day 3: 25 μg mIL-21 i.p. 5 days and/or 2 mg/kg sorafenib oral gavage 10 days, Day 21, n=10/group) | % mice surviving at Day 35 (RenCa.2 tumors) | inhibition of tumor growth ([1]; 7.5 mg/kg daily) | inhibition of tumor growth ([1]; 60 mg/kg daily) | doses at which partially effective in mediating tumor clearance [2] | doses at which maximally effective in mediating tumor clearance ([2]; sunitinib orally administered)
1 | CNC(=O)c1cc(Oc2ccc(NC(=O)Nc3ccc(Cl)c(C(F)(F)F)c3)cc2)ccn1 [sorafenib] | partially effective | 790.3 + 398.8 mm3 | 50% | 30% | 84% | below 10 mg/kg | 
2 | CCN(CC)CCNC(=O)c1c(C)[nH]c(/C=C2\C(=O)Nc3ccc(F)cc32)c1C [sunitinib] |  |  |  |  |  |  | above 40 mg/kg

From US20080025946A1, “INTERLEUKIN 21 AND TYROSINE KINASE INHIBITOR COMBINATION THERAPY” (priority 2006, published 2008)
